# Measurements reported in patent US20040067998A1, “Antifungal and/or antiparasitic pharmaceutical composition and novel indole derivatives as active principle of such a composition” (priority 2003, published 2004).
# “And” between values parts separate entries of the source, which are not always exact repeats. Equal entries are not always repeated. Where two headings read alike, the source gives them in different places.
# Legend:
# Format in all cases: cell-based
# [1] = tested on: promastigote stage of Leishmania mexicana; assay: Antiparasitic activity on the promastigote form of Leishmania (MTT); details: for IC50: read-out: CI50 Leishmania mexicana Promastigotes
# [2] = tested on: Candida albicans (strain n° CA980001); assay: Antifungal activity on a clinical strain of Candida albicans (MTT colorimetric microplate test); details: for MIC / CMI or CI80 Candida albicans (CA980001): strain CA980001; for MIC: read-out: CMI or CI80 Candida albicans (CA980001); for activity of inhibition of Candida albicans (in words): summary of Tables 27 to 40
# [3] = tested on: Aspergillus fumigatus (strain n°AF 980003); assay: Antifungal activity on a clinical strain of Aspergillus fumigatus (Alamar Blue microplate test); details: for MIC / CMI or CI80 Aspergillus fumigatus (AF980003): strain AF980003; for MIC: read-out: CMI or CI80 Aspergillus fumigatus (AF980003); for activity against Aspergillus fumigatus (in words): summary of Tables 27 to 40
# [4] = Leishmania mexicana, promastigotes, 36 h at 26° C., MTT
# [5] = Candida albicans, 24 h at 37° C., MTT
# [6] = Aspergillus fumigatus, Alamar Blue
# [7] = promastigotes, 36 h at 26° C., MTT
smiles,measurement,setting,value
Fc1ccccc1Cn1cc(Cn2cncn2)c2cc(Br)ccc21 [compound 24],CI50 Leishmania mexicana Promastigotes,[1],30.74 µg/mL
same,IC50,[1],79.8 µM
same,MIC,"[2]; 24 h at 37° C., MTT",>100 µM
same,MIC,[3]; Alamar Blue,>100 µM
Cc1c(C(C)n2ccnc2)c2ccccc2n1Cc1ccc(F)cc1 (stereo not drawn) [compound 72],CI50 Leishmania mexicana Promastigotes,[1],0.7 ± 0.3 µg/mL
same,IC50,[1],2 ± 1 µM
same,CMI or CI80 Candida albicans (CA980001),[2],67 ± 3 μM and 22 ± 1 μg/mL
same,CMI or CI80 Aspergillus fumigatus (AF980003),[3],69 ± 1 μM and 23 ± 1 μg/mL
Fc1ccc(Cn2cc(Cn3ccnc3)c3cc(Br)ccc32)cc1 [compound 12],CI50 Leishmania mexicana Promastigotes,[1],7.9 ± 0.9 µg/mL
same,IC50,[1],20.6 ± 2.4 µM
same,MIC,"[2]; 24 h at 37° C., MTT",>100 µM
same,MIC,[3]; Alamar Blue,>100 µM
Clc1ccc(Cn2cc(CCCn3ccnc3)c3ccccc32)cc1 [compound 60],CI50 Leishmania mexicana Promastigotes,[1],26.1 µg/mL
same,IC50,[1],74.7 µM
same,MIC,[2],>100 µM
same,MIC,[3],>100 µM
CCn1ccc2cc(Br)cc(C(c3ccc(F)cc3)n3ccnc3)c21 (stereo not drawn) [compound 58],CI50 Leishmania mexicana Promastigotes,[1]; promastigotes,2.4 ± 0.12 µg/mL
same,IC50,[1]; promastigotes,6.2 ± 0.35 µM
same,CMI or CI80 Candida albicans (CA980001),[2],0.69 ± 0.01 μM and 0.27 ± 0.01 μg/mL
same,activity of inhibition of Candida albicans (in words),[2],most active
same,CMI or CI80 Aspergillus fumigatus (AF980003),[3],59 ± 4 μM and 23 ± 2 μg/mL
same,activity against Aspergillus fumigatus (in words),[3],strong activity
"Fc1ccc(Cn2ccc3cc(-c4nnn[nH]4)ccc32)cc1 [Cpsé 2, 1-(4-Fluorobenzyl)-5-(1H-tetrazol-5-yl)-1H-indole]",activity against Leishmania mexicana (in words),[1],strong activity
same,IC50,[1]; [4],3 µg/mL and 10 µM
same,MIC,[2]; [5],64 ± 1 µM
same,CMI or CI80 Candida albicans (CA980001),"[2]; 24 h at 37° C., MTT, listed as 4",19.54 ± 1 µg/mL
same,MIC,[3]; [6],> 100 µM
"Clc1ccc(Cn2cc(Cn3ccnc3)c3cc(Br)ccc32)cc1 [Cpsé 10, 5-Bromo-1-(4-chlorobenzyl)-3-(1H-imidazol-1-ylmethyl)-1H-indole]",activity against Leishmania mexicana (in words),[1],strong activity
same,IC50,[1]; [4],3 µg/mL and 7.5 µM
same,MIC,[2]; [5],> 100 µM
same,MIC,[3]; [6],> 100 µM
Fc1ccc(Cn2cc(Cn3ccnc3)c3ccccc32)c(F)c1 [compound 6],CI50 Leishmania mexicana Promastigotes,[1]; [7],6 ± 0.5 µg/mL
same,IC50,[1]; [7],18.5 ± 1.8 µM
same,CMI or CI80 Candida albicans (CA980001),"[2]; 24 h at 37° C., MTT",48 ± 4 μM and 16 ± 2 μg/ml
same,CMI or CI80 Aspergillus fumigatus (AF980003),[3]; Alamar Blue,60 ± 2 μM and 19.4 ± 2 μg/ml
same,activity against Aspergillus fumigatus (in words),[3],strong activity
CCn1c(C(c2cccc(Cl)c2)n2ccnc2)c(C)c2cc(Br)ccc21 (stereo not drawn) [compound 32],activity against Leishmania mexicana (in words),[1],most active
same,IC50,[1],< 0.1 µM
same,CMI or CI80 Candida albicans (CA980001),[2],62 ± 1 μM and 27 ± 0.5 μg/mL
same,CMI or CI80 Aspergillus fumigatus (AF980003),[3],66 ± 5 μM and 28 ± 2 μg/mL
Clc1ccc(Cn2cc(Cn3ccnc3)c3cc(Cl)ccc32)cc1 [compound 14],CI50 Leishmania mexicana Promastigotes,[1],non linear
same,CMI or CI80 Candida albicans (CA980001),"[2]; 24 h at 37° C., MTT",30 µg/mL
same,MIC,"[2]; 24 h at 37° C., MTT",85 µM
same,CMI or CI80 Aspergillus fumigatus (AF980003),[3]; Alamar Blue,71 ± 3 μM and 25 ± 1 μg/ml
CCN1CCc2cccc(C(c3cccc(Cl)c3)n3ccnc3)c21 (racemic) [compound 48],activity against Leishmania mexicana (in words),[1],strong activity
same,CI50 Leishmania mexicana Promastigotes,[1]; [7],1 ± 0.3 µg/mL
same,IC50,[1]; [7],3 ± 1 µM
same,CMI or CI80 Candida albicans (CA980001),"[2]; 24 h at 37° C., MTT",0.06 ± 0.01 μM and 0.02 ± 0.01 μg/ml
same,activity of inhibition of Candida albicans (in words),[2],most active
same,CMI or CI80 Aspergillus fumigatus (AF980003),[3]; Alamar Blue,58 ± 4 μM and 26 ± 2 μg/ml
same,activity against Aspergillus fumigatus (in words),[3],strong activity
CCn1c(C(c2ccc(Cl)cc2Cl)n2ccnc2)c(C)c2cc(Br)ccc21 (stereo not drawn) [compound 34],CI50 Leishmania mexicana Promastigotes,[1],1.99 ± 0.04 µg/mL
same,activity against Leishmania mexicana (in words),[1],strong activity
same,IC50,[1],4.28 ± 0.1 µM
same,CMI or CI80 Candida albicans (CA980001),[2],48 ± 0.5 μM and 22 ± 0.5 μg/mL
same,MIC,[3],>100 µM
CCC(c1cn(Cc2ccc(Cl)cc2)c2ccccc12)n1ccnc1.O=[N+]([O-])O (stereo not drawn) [64n],CI50 Leishmania mexicana Promastigotes,[1]; promastigotes,2.97 ± 0.02 µg/mL
same,IC50,[1]; promastigotes,7.2 ± 0.07 µM
same,CMI or CI80 Candida albicans (CA980001),[2],36 ± 10 μM and 15 ± 4 μg/mL
same,CMI or CI80 Aspergillus fumigatus (AF980003),[3],57 ± 5 μM and 23.53 μg/mL
same,activity against Aspergillus fumigatus (in words),[3],strong activity
Clc1ccc(Cn2cc(CCCCn3ccnc3)c3ccccc32)cc1.O=[N+]([O-])O [61n],CI50 Leishmania mexicana Promastigotes,[1],20.05 ± 0.3 µg/mL
same,IC50,[1],62 ± 0.3 µM
same,MIC,[2],>100 µM
same,MIC,[3],>100 µM
Clc1ccccc1Cn1cc(C2(Cn3ccnc3)CCCC2)c2ccccc21 [compound 62],CI50 Leishmania mexicana Promastigotes,[1],28.38 µg/mL
same,IC50,[1],72.8 µM
same,MIC,[2],>100 µM
same,MIC,[3],>100 µM
